Experimental data published in patent US12668600B2 (Kumquat Biosciences Inc., priority 2023, dated 2026).

How the values were obtained:
Format in all cases: biochemical
KRAS WT = target: T1, KRAS WT (Homo sapiens, UniProt P01116); test: HTRF KRAS-SOS1 interaction assay, wildtype KRAS; details: binned ≤2 μM / >2 μM, read-out: Inhibition of KRAS WT (IC50)
T1 construct: made in house; host or cells: E. coli, e.g. BL21 (DE3)
How it was run: (§1)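 GST-tagged KRAS (WT or mutant) with anti-GST-Eu donor, mixed with His-hSOS1 and anti-6His-XL665 acceptor. Buffer ~5 mM HEPES pH 7.4, ~150 mM NaCl, ~1 mM DTT, 0.05% BSA, 0.0025% Igepal; incubated about 10 min or longer. HTRF 665/620 ratio, compounds in duplicate up to 10 μM, IC50 derived.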

KRAS G12V = target: T2, KRAS G12V (Homo sapiens, UniProt P01116, G12V); test: HTRF KRAS-SOS1 interaction assay, KRAS G12V; details: binned ≤2 μM / >2 μM, read-out: Inhibition of KRAS G12V (IC50)
T2 construct: made in house; host or cells: E. coli, e.g. BL21 (DE3)
T2 sequence (P01116 1-188 isoform P01116-2 G12V): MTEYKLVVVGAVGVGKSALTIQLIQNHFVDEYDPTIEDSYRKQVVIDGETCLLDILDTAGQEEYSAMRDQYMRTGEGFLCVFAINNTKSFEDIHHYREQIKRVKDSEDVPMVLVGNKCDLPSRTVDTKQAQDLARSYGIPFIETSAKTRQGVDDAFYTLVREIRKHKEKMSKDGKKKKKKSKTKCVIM
How it was run: as §1

KRAS G12S = target: T3, KRAS G12S (Homo sapiens, UniProt P01116, G12S); test: HTRF KRAS-SOS1 interaction assay, KRAS G12S; details: binned ≤2 μM / >2 μM, read-out: Inhibition of KRAS G12S (IC50)
T3 construct: made in house; host or cells: E. coli, e.g. BL21 (DE3)
T3 sequence (P01116 1-188 isoform P01116-2 G12S): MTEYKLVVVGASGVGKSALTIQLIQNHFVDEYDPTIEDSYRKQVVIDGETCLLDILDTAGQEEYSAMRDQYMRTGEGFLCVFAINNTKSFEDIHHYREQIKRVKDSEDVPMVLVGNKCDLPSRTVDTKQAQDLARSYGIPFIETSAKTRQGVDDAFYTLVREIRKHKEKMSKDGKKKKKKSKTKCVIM
How it was run: as §1

KRAS G12D = target: T4, KRAS G12D (Homo sapiens, UniProt P01116, G12D); test: HTRF KRAS-SOS1 interaction assay, KRAS G12D; details: binned ≤2 μM / >2 μM, read-out: Inhibition of KRAS G12D (IC50)
T4 construct: made in house; host or cells: E. coli, e.g. BL21 (DE3)
T4 sequence (P01116 1-188 isoform P01116-2 G12D): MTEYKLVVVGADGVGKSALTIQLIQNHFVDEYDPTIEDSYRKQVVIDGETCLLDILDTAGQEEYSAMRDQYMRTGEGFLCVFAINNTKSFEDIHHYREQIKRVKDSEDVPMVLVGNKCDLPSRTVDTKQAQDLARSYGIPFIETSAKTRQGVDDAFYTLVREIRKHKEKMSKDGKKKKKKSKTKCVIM
How it was run: as §1

Measured: IC50

T1 sequence (P01116 1-188 isoform P01116-2): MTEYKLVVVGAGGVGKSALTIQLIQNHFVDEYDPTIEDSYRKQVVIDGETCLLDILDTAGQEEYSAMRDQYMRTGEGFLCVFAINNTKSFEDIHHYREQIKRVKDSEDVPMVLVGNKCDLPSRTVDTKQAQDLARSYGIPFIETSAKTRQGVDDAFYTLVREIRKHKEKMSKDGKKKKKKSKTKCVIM

N#Cc1c(N)sc2c(F)ccc(-c3c(C(F)(F)F)c4c5c(nc(OC[C@@]67CCCN6CC(=C(F)F)C7)nc5c3F)N([C@H](CC3CCOCC3)c3cccnc3N)CCO4)c12 [Compound 781, 2-amino-4-(4-((R)-1-(2-aminopyridin-3-yl)-2-(tetrahydro-2H-pyran-4-yl)ethyl)-2-(((S)-2-(difluoromethylene)tetrahydro-1H-pyrrolizin-7a(5H)-yl)methoxy)-10-fluoro-8-(trifluoromethyl)-5,6-dihydro-4H-[1,4]oxazepino[5,6,7-de]quinazolin-9-yl)-7-fluorobenzo[b]thiophene-3-carbonitrile]
≤ 2000 nM: all assays above

COCC[C@H](c1cccnc1N)N1CCOc2c(C(F)(F)F)c(-c3ccc(F)c4sc(N)c(C#N)c34)c(F)c3nc(OC[C@@]45CCCN4C[C@H](F)C5)nc1c23 [Compound 782, 2-amino-4-(4-((R)-1-(2-aminopyridin-3-yl)-3-methoxypropyl)-10-fluoro-2-(((2R,7aS)-2-fluorotetrahydro-1H-pyrrolizin-7a(5H)-yl)methoxy)-8-(trifluoromethyl)-5,6-dihydro-4H-[1,4]oxazepino[5,6,7-de]quinazolin-9-yl)-7-fluorobenzo[b]thiophene-3-carbonitrile]
≤ 2000 nM: all assays above

C[C@H](c1cc(Cl)cnc1N)N1CCOc2c(C(F)(F)F)c(-c3ccc(F)c4sc(N)c(C#N)c34)c(F)c3nc(OC[C@@]45CCCN4CC(=C(F)F)C5)nc1c23 [Compound 793, 2-amino-4-(4-((R)-1-(2-amino-5-chloropyridin-3-yl)ethyl)-2-(((S)-2-(difluoromethylene)tetrahydro-1H-pyrrolizin-7a(5H)-yl)methoxy)-10-fluoro-8-(trifluoromethyl)-5,6-dihydro-4H-[1,4]oxazepino[5,6,7-de]quinazolin-9-yl)-7-fluorobenzo[b]thiophene-3-carbonitrile]
≤ 2000 nM: all assays above

C[C@H](c1cccnc1N)N1c2nc(OC[C@@]34CCCN3C[C@H](F)C4)nc3c(F)c(-c4ccc(F)c5sc(N)c(C#N)c45)c(Cl)c(c23)OC[C@@H]1C [Compound 800, 2-amino-4-((5S)-4-((R)-1-(2-aminopyridin-3-yl)ethyl)-8-chloro-10-fluoro-2-(((2R,7aS)-2-fluorotetrahydro-1H-pyrrolizin-7a(5H)-yl)methoxy)-5-methyl-5,6-dihydro-4H-[1,4]oxazepino[5,6,7-de]quinazolin-9-yl)-7-fluorobenzo[b]thiophene-3-carbonitrile]
≤ 2000 nM: all assays above

N#Cc1c(N)sc2c(F)ccc(-c3c(C(F)(F)F)c4c5c(nc(OC[C@@]67CCCN6CC(=C(F)F)C7)nc5c3F)N([C@H](CCC3CCOCC3)c3cccnc3N)CCO4)c12 [Compound 808, 2-amino-4-(4-((R)-1-(2-aminopyridin-3-yl)-3-(tetrahydro-2H-pyran-4-yl)propyl)-2-(((S)-2-(difluoromethylene)tetrahydro-1H-pyrrolizin-7a(5H)-yl)methoxy)-10-fluoro-8-(trifluoromethyl)-5,6-dihydro-4H-[1,4]oxazepino[5,6,7-de]quinazolin-9-yl)-7-fluorobenzo[b]thiophene-3-carbonitrile]
≤ 2000 nM: all assays above
